PubChem BioAssay (NCI)
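96-well plates; 48 h exposure; 5 concentrations. Endpoints by linear interpolation between flanking doses. Not reached: highest tested concentration assigned. GI50 is the concentration that inhibits growth by half. TGI is the concentration that stops growth completely.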

Assays:
Assay in all cases: NCI-60 cell line screen, 48 h
[1] = tested on: KM12 colon
[2] = tested on: SF-539 CNS
[3] = tested on: NCI-H460 lung
[4] = tested on: IGROV1 ovarian
[5] = tested on: UACC-257 melanoma
[6] = tested on: ACHN renal
[7] = tested on: HL-60(TB) leukemia
[8] = tested on: SW-620 colon
[9] = tested on: BT-549 breast
[10] = tested on: SF-268 CNS
[11] = tested on: SF-295 CNS
[12] = tested on: NCI-H226 lung
[13] = tested on: SNB-19 CNS
[14] = tested on: 786-0 renal
[15] = tested on: SK-MEL-5 melanoma
[16] = tested on: HS 578T breast
[17] = tested on: MALME-3M melanoma
[18] = tested on: COLO 205 colon
[19] = tested on: TK-10 renal
[20] = tested on: MDA-MB-435
[21] = tested on: T-47D breast
[22] = tested on: U251 CNS
[23] = tested on: HT29 colon
[24] = tested on: OVCAR-5 ovarian
[25] = tested on: HCC-2998 colon
[26] = tested on: HCT-15 colon
[27] = tested on: UO-31 renal
[28] = tested on: K-562 leukemia
[29] = tested on: SN12C renal
[30] = tested on: DU-145 prostate
[31] = tested on: SR leukemia
[32] = tested on: CAKI-1 renal
[33] = tested on: M14 melanoma
[34] = tested on: A549 NSCLC
[35] = tested on: MOLT-4 leukemia
[36] = tested on: MDA-MB-231 breast
[37] = tested on: PC-3 prostate
[38] = tested on: OVCAR-4 ovarian
[39] = tested on: SNB-75 CNS
[40] = tested on: MCF7 breast
[41] = tested on: HOP-62 NSCLC
[42] = tested on: A498 renal
[43] = tested on: SK-OV-3 ovarian
[44] = tested on: SK-MEL-2 melanoma
[45] = tested on: SK-MEL-28 melanoma
[46] = tested on: NCI-H23 lung
[47] = tested on: LOX IMVI melanoma
[48] = tested on: OVCAR-3 ovarian
[49] = tested on: UACC-62 melanoma
[50] = tested on: NCI/ADR-RES ovarian
[51] = tested on: RPMI-8226 leukemia
[52] = tested on: CCRF-CEM leukemia
[53] = tested on: OVCAR-8 ovarian
[54] = tested on: HCT-116 colon
[55] = tested on: RXF 393 renal
[56] = tested on: EKVX NSCLC
[57] = tested on: NCI-H522 lung
[58] = tested on: HOP-92 NSCLC

Cc1cc(O)c(C2=NN(c3ccc(S(N)(=O)=O)cc3)C(c3ccccc3O)C2)cc1Cl (stereo unspecified)
GI50 [1]: 1.74 µM
TGI [1]: 3.4 µM
GI50 [2]: 1.61 µM
TGI [2]: 3.04 µM
GI50 [3]: 2.07 µM
TGI [3]: 4.38 µM
GI50 [4]: 1.07 µM
TGI [4]: 5.66 µM
GI50 [5]: 3.45 µM
TGI [5]: 8.74 µM
GI50 [6]: 2.58 µM
TGI [6]: 8.55 µM
GI50 [7]: 2.49 µM
TGI [7]: 6.14 µM
GI50 [8]: 1.7 µM
TGI [8]: 3.39 µM
GI50 [9]: 2.08 µM
TGI [9]: 6.11 µM
GI50 [10]: 2.64 µM
TGI [10]: 8.06 µM
GI50 [11]: 1.68 µM
TGI [11]: 3.5 µM
GI50 [12]: 1.83 µM
TGI [12]: 6.05 µM
GI50 [13]: 3.5 µM
TGI [13]: 11.4 µM
GI50 [14]: 2.04 µM
TGI [14]: 3.88 µM
GI50 [15]: 5.6 µM
TGI [15]: 18.2 µM
GI50 [16]: 2.95 µM
TGI [16]: 10.5 µM
GI50 [17]: 2.2 µM
TGI [17]: 6.7 µM
GI50 [18]: 1.86 µM
TGI [18]: 3.41 µM
GI50 [19]: 3.03 µM
TGI [19]: 7.32 µM
GI50 [20]: 2.01 µM
TGI [20]: 4.32 µM
GI50 [21]: 2.61 µM
TGI [21]: 11.3 µM
GI50 [22]: 2.14 µM
TGI [22]: 5.16 µM
GI50 [23]: 2.07 µM
TGI [23]: 4.07 µM
GI50 [24]: 1.7 µM
TGI [24]: 3.61 µM
GI50 [25]: 2 µM
TGI [25]: 3.81 µM
GI50 [26]: 2.39 µM
TGI [26]: 6.25 µM
GI50 [27]: 0.181 µM
TGI [27]: 5.65 µM
GI50 [28]: 2.17 µM
TGI [28]: 7.93 µM
GI50 [29]: 2.8 µM
TGI [29]: 8.65 µM
GI50 [30]: 2.41 µM
TGI [30]: 4.95 µM
GI50 [31]: 2.22 µM
TGI [31]: 26.7 µM
GI50 [32]: 1.67 µM
TGI [32]: 4.12 µM
GI50 [33]: 1.75 µM
TGI [33]: 3.39 µM
GI50 [34]: 2.67 µM
TGI [34]: 7.85 µM
GI50 [35]: 3.11 µM
TGI [35]: 12.2 µM
GI50 [36]: 1.91 µM
TGI [36]: 5.11 µM
GI50 [37]: 1.33 µM
TGI [37]: 3.26 µM
GI50 [38]: 2.89 µM
TGI [38]: 9.58 µM
GI50 [39]: 1.54 µM
TGI [39]: 8.64 µM
GI50 [40]: 2.25 µM
TGI [40]: 6.12 µM
GI50 [41]: 1.75 µM
TGI [41]: 3.68 µM
GI50 [42]: 1.69 µM
TGI [42]: 7.29 µM
GI50 [43]: 3.86 µM
TGI [43]: 13.2 µM
GI50 [44]: 4.85 µM
TGI [44]: 11.6 µM
GI50 [45]: 2.74 µM
TGI [45]: 6.8 µM
GI50 [46]: 2 µM
TGI [46]: 4.38 µM
GI50 [47]: 1.63 µM
TGI [47]: 3.03 µM
GI50 [48]: 2.61 µM
TGI [48]: 7.62 µM
GI50 [49]: 2.18 µM
TGI [49]: 6.59 µM
GI50 [50]: 2.82 µM
TGI [50]: 8.84 µM
GI50 [51]: 2.24 µM
TGI [51]: 10.1 µM
GI50 [52]: 3.12 µM
TGI [52]: > 24.7 µM
GI50 [53]: 2.8 µM
TGI [53]: 8.54 µM
GI50 [54]: 1.57 µM
TGI [54]: 2.91 µM
GI50 [55]: 2.05 µM
TGI [55]: 5.78 µM
GI50 [56]: 1.96 µM
TGI [56]: 6.52 µM
GI50 [57]: 1.91 µM
TGI [57]: 4.72 µM
GI50 [58]: 1.46 µM
TGI [58]: 6.51 µM
